Data published in patent US9422324B2, “6-substituted demethyl-estradiol derivatives as selective ER-β agonists” (priority 2010, dated 2016).

Legend:
TREK1 = test: Expression profiling (Agilent microarray), TREK1 gene transcription in tumor cell lines; format: cell-based, human; conditions: 24 hours
Protocol: (§1) The study includes three human tumor cell lines: A549, Panc-1, and SK-OV-3. The lines are each grown in two flasks cultured to roughly 40% confluence. One of the flasks is treated by addition of drug to the culture media at a various concentrations. The other, mock treated, flask is treated only with the vehicle used to solubilize and deliver the drug. RNA extracted from the pairs of treated and untreated samples is subjected to microarray analysis on Agilent Whole Human Genome Microarrays (G4112F). Each analysis reports the difference in abundance of messenger RNAs for each of the 41,000 specific mRNA detectors on the array. This direct comparison of the treated versus untreated samples for each cell line provides extremely sensitive detection of changes in mRNA abundance resulting from the drug treatment. As each cell line comparison is self-normalized, the results can be compared across the samples with high confidence.
(§2) Three human tumor cell lines, A549, Panc-1, and SK-OV-3, are each grown in two flasks cultured to roughly 40% confluence. One of the flasks is treated by addition of compound 1 to the culture media at concentrations according to Table 1 above. The other, mock treated, flask is treated only with the vehicle used to solubilize and deliver the drug. All flasks are cultured for a further 24 hours, and then the cells are scraped free and washed in ice-cold PBS, then collected by centrifugation. The harvested cells are immediately frozen, and stored at −80° C. or colder. It is visually noticeable that the treated cells yielded less mass than the untreated cells.
(§3) Total RNA is prepared from the frozen tissue samples using Trizol-based cell lysis followed by 65° C. hot phenol extraction and RNeasy chromatography purification. The purified RNA samples are analyzed spectrophotometrically. The concentration of RNA is determined by measuring the absorbance at 260 nm (A260). Given an absorbance of 1 unit at 260 nm corresponds to […].
(§4) All RNAs are labeled using 1 microgram of RNA as input to an Agilent Low Input Labeling reaction.
(§5) Test RNA is labeled with Cy5 (650 nm emitter) and reference RNA is labeled with Cy3 (550 nm emitter) nucleotides. Labeling, hybridizations and subsequent washings are carried out on Agilent H1Av2 human expression chips. The resulting hybridized chips are scanned on an Agilent microarray scanner, and intensity information for each detector spot is extracted from the scanned image using Agilent feature extraction software. The set of data images and extracted measurements from each image are supplied.
(§6) The data reported are the red (treated) and green (untreated) background-subtracted signals. This is the least modified form of the data. A background “surface” is estimated across the slide, based on numerous probes that are not complementary to human DNA. These serve as estimators of both non-specific binding of labeled cRNA to array surfaces and non-specific binding of labeled cRNA to the immobilized DNA oligomers. Using this information, local noise around each probe is estimated and this is subtracted from the signal found at the area of oligonucleotide deposition for each particular probe feature on the array (gBGSubSignal, rBGSubSignal). The ratio of signal from the RNA of the treated cell and the RNA of the untreated cell is reported both as a direct ratio and as the log2 ratio (Ratio, Log2Ratio).
(§7) After the ratios have been calculated for the normalized data, the various control and duplicate samples are analyzed to build a model of how reproducible the results are, and how this reproducibility is varies depending on signal strength and noise. With these parameters, an estimate of the likelihood that each ratio could have arisen if the red and green intensities are randomly drawn from a single process that produced the same distribution of intensities is produced. […]

TREK2 = test: Expression profiling (Agilent microarray), TREK2 gene transcription in tumor cell lines; format: cell-based, human; conditions: 24 hours
Protocol: as §1, §2, §3, §4, §5, §6, §7

ERβ = ERβ (Homo sapiens (Human), UniProt Q92731); test: Luciferase reporter assay in MDA-MB-231 cells transfected with ERα or ERβ; format: cell-based; conditions: MDA-MB-231, 24 hours; relative to B and I; from FIGS. 2 and 3 and Table 1
Protocol: Response of I and B on ERα and ERβ is measured by a luciferase assay. MDA-MB-231 cells are transiently transfected with expression vectors encoding either ERα or ERβ and co-transfected with a luciferase reporter construct. Cells are treated for 24 hours at […] with increasing amounts of test article.

Chain of ERβ (Q92731 whole entry, species assumed): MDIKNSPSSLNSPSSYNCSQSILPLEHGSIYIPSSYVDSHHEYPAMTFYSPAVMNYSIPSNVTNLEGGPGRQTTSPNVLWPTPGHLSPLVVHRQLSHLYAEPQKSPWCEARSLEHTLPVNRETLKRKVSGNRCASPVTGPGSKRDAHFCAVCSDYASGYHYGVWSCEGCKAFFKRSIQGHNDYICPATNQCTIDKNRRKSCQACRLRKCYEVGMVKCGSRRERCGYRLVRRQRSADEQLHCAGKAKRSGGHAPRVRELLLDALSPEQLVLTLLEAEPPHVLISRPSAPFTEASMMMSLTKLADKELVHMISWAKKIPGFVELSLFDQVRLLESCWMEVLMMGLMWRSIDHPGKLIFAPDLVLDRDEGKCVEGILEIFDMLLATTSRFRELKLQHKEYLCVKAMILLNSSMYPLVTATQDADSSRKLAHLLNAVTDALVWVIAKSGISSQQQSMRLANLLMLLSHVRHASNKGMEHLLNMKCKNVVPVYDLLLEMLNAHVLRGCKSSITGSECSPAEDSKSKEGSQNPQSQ

## COC[C@@H]1C[C@@H]2[C@H](CCC3[C@H]2CC[C@@H]3O)c2ccc(O)cc21 (stereo partly drawn) [compound 1, (6R,8S,9S,14S,17S)-6-(methoxymethyl)-7,8,9,11,12,13,14,15,16,17-decahydro-6H-cyclopenta[a]phenanthrene-3,17-diol]
TREK1; A549, 50 μM
  TREK1 Log 2 ratio treated/untreated: 4.07/
TREK1; A549, 100 μm
  TREK1 Log 2 ratio treated/untreated: 3.53/
TREK1; PANC1, 50 μM
  TREK1 Log 2 ratio treated/untreated: 2.05/
TREK1; PANC1, 20 μm
  TREK1 Log 2 ratio treated/untreated: 4.78/
TREK1; PANC1, 100 μm
  TREK1 Log 2 ratio treated/untreated: 3.51/
TREK1; SKOV-3, 50 μM
  TREK1 Log 2 ratio treated/untreated: 2.80/
TREK1; SKOV-3, 20 μm
  TREK1 Log 2 ratio treated/untreated: 1.96/
TREK1; SKOV-3, 100 μm
  TREK1 Log 2 ratio treated/untreated: 1.97/
TREK2; A549, 50 μM
  TREK2 Log 2 ratio treated/untreated: 5.37/
TREK2; A549, 20 μm
  TREK2 Log 2 ratio treated/untreated: 3.79/
TREK2; A549, 100 μm
  TREK2 Log 2 ratio treated/untreated: 3.00/
TREK2; PANC1, 50 μM
  TREK2 Log 2 ratio treated/untreated: 4.20/
TREK2; PANC1, 20 μm
  TREK2 Log 2 ratio treated/untreated: 4.15/
TREK2; PANC1, 100 μm
  TREK2 Log 2 ratio treated/untreated: 3.91/
TREK2; SKOV-3, 50 μM
  TREK2 Log 2 ratio treated/untreated: 5.56/
TREK2; SKOV-3, 20 μm
  TREK2 Log 2 ratio treated/untreated: 4.12/
TREK2; SKOV-3, 100 μm
  TREK2 Log 2 ratio treated/untreated: 4.07/
ERβ
  ER subtype functional profile (% of E2 activity on ERα and ERβ): ERβ specific agonist
